This assay concerns the target T1, human G6PD (glucose-6-phosphate dehydrogenase) (Homo sapiens, UniProt P11413).
T1 construct: functional as dimer or tetramer
As to the kind of experiment: growth rate of humanized E. coli (LEICA), Hill fit. It counts as cell-based. The note with it: live E. coli Δpgi Δzwf expressing human G6PD, M9 glucose, 37 °C, 1% DMSO; growth read-out, no effect on E. coli Δpgi.

T1 sequence (P11413 2-515): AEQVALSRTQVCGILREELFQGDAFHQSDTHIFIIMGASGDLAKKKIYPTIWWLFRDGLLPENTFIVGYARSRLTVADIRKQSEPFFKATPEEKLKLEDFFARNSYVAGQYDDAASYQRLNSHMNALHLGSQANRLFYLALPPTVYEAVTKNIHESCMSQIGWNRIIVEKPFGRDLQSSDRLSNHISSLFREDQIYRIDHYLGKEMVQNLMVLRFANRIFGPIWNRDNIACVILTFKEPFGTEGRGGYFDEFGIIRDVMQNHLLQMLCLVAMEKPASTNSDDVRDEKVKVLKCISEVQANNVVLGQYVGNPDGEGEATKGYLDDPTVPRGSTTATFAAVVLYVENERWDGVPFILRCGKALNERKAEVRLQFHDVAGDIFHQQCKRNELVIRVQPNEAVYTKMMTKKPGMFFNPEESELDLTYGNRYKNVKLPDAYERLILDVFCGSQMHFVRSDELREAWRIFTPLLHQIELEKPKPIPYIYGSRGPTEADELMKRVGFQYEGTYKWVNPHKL

For the compound `N#Cc1cc(Nc2ncc3c(n2)CCCCC3=O)cs1` [G6PDi-1], the half-inhibitory concentration (IC50) is reported as 111 µM.

Usually IC50 stands for the point on the concentration scale where inhibition reaches its midpoint.

For the origin of these results see publication PMC12443593, “A live bacteria enzyme assay for identification of human disease mutations and drug screening” (Nature Biomedical Engineering, 2025).
